# Key:
# [1] = target: T1, Cbl-b (Homo sapiens (Human), UniProt Q13191); test: Cbl-b displacement assay (Cbl-b inhibition assay), TR-FRET probe displacement, Biological Example 1; format: binding
# How it was run: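 N-terminally Avitagged, biotinylated truncated Cbl-b (0.5 nM "High" or 0.125 nM "Low", final) pre-incubated 1 h at room temperature with compound (1% DMSO) in HEPES pH 7.5 buffer. Then 150 nM BODIPY FL probe (~EC40) plus 2 nM streptavidin-terbium for 1 h; TR-FRET read at 520/620 nm.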
# [2] = test system: primary human total T-cells; test: Primary human total T-cell activation: IL-2 secretion, Biological Example 2; format: cell-based; details: 48 hours, fold change over baseline; for fold induction at 0.3 µM: inhibitor 0.3 μM; for fold induction at 1 µM: inhibitor 1 μM; for fold induction at 3 µM: inhibitor 3 μM
# [3] = test system: primary human total T-cells; test: Primary human total T-cell activation: CD25 surface staining, Biological Example 2; format: cell-based; details: 48 hours, fold change over baseline; for fold induction at 0.3 µM: inhibitor 0.3 μM; for fold induction at 1 µM: inhibitor 1 μM; for fold induction at 3 µM: inhibitor 3 μM
# [4] = target: T1, Cbl-b; test: Cbl-b displacement assay (Cbl-b inhibition assay), Biological Example 8; format: binding; details: Table 8-1
# Procedure: (§1) Candidate compounds were evaluated for their ability to bind and inhibit Cbl-b, an E3 ubiquitin-protein ligase, as evidenced by their ability to displace a fluorophore-labeled probe bound to Cbl-b.
# (§2) The ability of candidate compounds to displace a known inhibitor and thereby inhibit Cbl-b activity was measured by monitoring the interaction of Cbl-b with a fluorophore-labeled probe in the presence of the candidate compound. A truncated variant of Cbl-b (UniProt number Q13191) containing residues 36-427 and an Avitag at its N-terminus was co-expressed with BirA biotin ligase and purified using a standard protocol (see Dou et al., Nature Structural and Molecular Biology 8: 982-987, 2013; Avidity LLC).
# (§3) Fluorescently-labeled inhibitor probe was synthesized and tagged with BODIPY FL. Cbl-b displacement assays were performed in a 384-well plate at room temperature in a 10 μl reaction volume by pre-incubating 0.5 nM Cbl-b or 0.125 nM Cbl-b (final concentration, indicated as “High” and “Low”, respectively) in an assay buffer containing 20 mM HEPES pH 7.5, 150 mM NaCl, 0.01% Triton X-100, 0.01% BSA and 0.5 mM TCEP in the presence of a candidate compound in 1% DMSO (final concentration) for 1 hour. After incubation in the presence of the candidate compound, the plate was incubated for an additional 1 hour in the presence of an approximate EC40 binding saturation consisting of 150 nM fluorescently-labeled inhibitor probe and 2 nM Streptavidin-Terbium (Cisbio) (final concentrations). Following the 1 hour incubation, the plates were read for TR-FRET signal at 520/620 nM using an Envision plate reader (Perkin Elmer).
# (§4) The resulting data for the Cbl-b activity assays were analyzed using standard methods to determine the IC50 values for the tested compounds.
# [5] = test system: primary human total T-cells; test: Primary human total T-cell activation: IL-2 secretion, Biological Example 9; format: cell-based; details: 48 hours, fold change over baseline; for fold induction at 0.3 µM: inhibitor 0.3 μM; for fold induction at 0.3 µM / fold induction at 3 µM: Table 9-1; for fold induction at 1 µM: inhibitor 1 μM; for fold induction at 3 µM: inhibitor 3 μM
# [6] = test system: primary human total T-cells; test: Primary human total T-cell activation: CD25 surface staining, Biological Example 9; format: cell-based; details: 48 hours, fold change over baseline; for fold induction at 0.3 µM: inhibitor 0.3 μM; for fold induction at 0.3 µM / fold induction at 3 µM: Table 9-1; for fold induction at 1 µM: inhibitor 1 μM; for fold induction at 3 µM: inhibitor 3 μM
# [7] = target: T1, Cbl-b; test: Cbl-b displacement assay (Cbl-b inhibition assay), Biological Example 12; format: binding; details: Table 12-1
# Procedure: as §1, §2, §3, §4
# [8] = test system: primary human total T-cells; test: Primary human total T-cell activation: IL-2 secretion, Biological Example 13; format: cell-based; details: 48 hours, fold change over baseline; for fold induction at 0.3 µM: inhibitor 0.3 μM; for fold induction at 0.3 µM / fold induction at 3 µM: Table 13-1; for fold induction at 1 µM: inhibitor 1 μM; for fold induction at 3 µM: inhibitor 3 μM
# [9] = test system: primary human total T-cells; test: Primary human total T-cell activation: CD25 surface staining, Biological Example 13; format: cell-based; details: 48 hours, fold change over baseline; for fold induction at 0.3 µM: inhibitor 0.3 μM; for fold induction at 0.3 µM / fold induction at 3 µM: Table 13-1; for fold induction at 1 µM: inhibitor 1 μM; for fold induction at 3 µM: inhibitor 3 μM
# [10] = Cbl-b concentration (High or Low) not given, read-out: IC50 values in the Cbl-b inhibition assay of Biological Example 1
# [11] = anti-CD3/anti-CD28 co-stimulation
# [12] = anti-CD3/anti-CD28 co-stimulation, read-out: IL-2 secretion CD3/CD28 1 μM
# [13] = anti-CD3 alone, read-out: IL-2 secretion CD3 1 μM
# [14] = anti-CD3/anti-CD28 co-stimulation, read-out: CD25 staining CD3/CD28 1 μM
# [15] = anti-CD3 alone, read-out: CD25 staining CD3 1 μM
# [16] = 0.5 nM Cbl-b final concentration (High), read-out: Cbl-b IC50 (High)
# [17] = anti-CD3/anti-CD28 co-stimulation, Table 9-1, read-out: IL-2 secretion CD3/CD28 1 μM
# [18] = anti-CD3 alone, Table 9-1, read-out: IL-2 secretion CD3 1 μM
# [19] = anti-CD3/anti-CD28 co-stimulation, Table 9-1, read-out: CD25 staining CD3/CD28 1 μM
# [20] = anti-CD3 alone, Table 9-1, read-out: CD25 staining CD3 1 μM
# [21] = anti-CD3/anti-CD28 co-stimulation, Table 13-1, read-out: IL-2 secretion CD3/CD28 1 μM
# [22] = anti-CD3 alone, Table 13-1, read-out: IL-2 secretion CD3 1 μM
# [23] = anti-CD3/anti-CD28 co-stimulation, Table 13-1, read-out: CD25 staining CD3/CD28 1 μM
# [24] = anti-CD3 alone, Table 13-1, read-out: CD25 staining CD3 1 μM
# [25] = 0.125 nM Cbl-b final concentration (Low), read-out: Cbl-b activity IC50 (Low)
# [26] = 0.125 nM Cbl-b final concentration (Low), read-out: Cbl-b IC50 (Low)
# T1 sequence (Q13191 36-427): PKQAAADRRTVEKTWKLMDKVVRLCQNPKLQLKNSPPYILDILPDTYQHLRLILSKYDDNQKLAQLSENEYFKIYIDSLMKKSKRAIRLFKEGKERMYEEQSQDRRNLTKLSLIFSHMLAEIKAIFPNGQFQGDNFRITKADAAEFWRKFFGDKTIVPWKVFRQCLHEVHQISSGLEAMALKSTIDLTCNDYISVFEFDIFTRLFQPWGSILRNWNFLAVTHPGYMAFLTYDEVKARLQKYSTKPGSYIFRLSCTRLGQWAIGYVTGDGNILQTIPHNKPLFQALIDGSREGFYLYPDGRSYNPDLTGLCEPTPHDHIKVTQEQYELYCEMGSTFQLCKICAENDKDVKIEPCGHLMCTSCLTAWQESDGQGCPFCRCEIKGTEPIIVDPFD
SMILES,"IC50 [1, 10] [nM]","fold induction at 0.3 µM [2, 11]","fold induction at 1 µM [2, 12]","fold induction at 1 µM [2, 13]",fold induction at 3 µM ([2]; anti-CD3 alone),"fold induction at 0.3 µM [3, 11]","fold induction at 1 µM [3, 14]","fold induction at 1 µM [3, 15]",fold induction at 3 µM ([3]; anti-CD3 alone),"fold induction at 0.3 µM [5, 11]","fold induction at 1 µM [5, 17]","fold induction at 1 µM [5, 18]",fold induction at 3 µM ([5]; anti-CD3 alone),"fold induction at 0.3 µM [6, 11]","fold induction at 1 µM [6, 19]","fold induction at 1 µM [6, 20]",fold induction at 3 µM ([6]; anti-CD3 alone),"fold induction at 0.3 µM [8, 11]","fold induction at 1 µM [8, 21]","fold induction at 1 µM [8, 22]",further results
"C[C@@H]1C[C@H](C)CN(Cc2cc3c(c(C(F)(F)F)c2)CN(c2cccc(C4(Cc5nncn5C)COC4)c2)C3=O)C1 [Compound 2, 6-{[(3R,5S)-3,5-dimethylpiperidin-1-yl]methyl}-2-(3-{3-[(4-methyl-1,2,4-triazol-3-yl)methyl]oxetan-3-yl}phenyl)-4-(trifluoromethyl)-3H-isoindol-1-one]",< 1,> 15,> 15,0.34 to 0.66,> 0.66,< 1.24,< 1.24,1.05 to 1.14,1.05 to 1.14,10 to 15,10 to 15,0.34 to 0.66,> 0.66,< 1.24,< 1.24,1.05 to 1.14,1.05 to 1.14,11 to 15,11 to 15,0.34 to 0.66,"IC50 ([1]; 0.5 nM Cbl-b final concentration (High), read-out: Cbl-b activity IC50 (High)): < 1 nM; IC50 [4, 16]: < 1 nM; IC50 [7, 16]: < 1 nM; fold induction at 3 µM ([8]; anti-CD3 alone): > 0.66; fold induction at 0.3 µM [9, 11]: < 1.24; fold induction at 1 µM [9, 23]: < 1.24; fold induction at 1 µM [9, 24]: 1.05 to 1.14; fold induction at 3 µM ([9]; anti-CD3 alone): 1.05 to 1.14"
"CCNc1cc(C2(Cc3nncn3C)COC2)cc(N2Cc3c(cc(CN4CCC[C@H](C)C4)cc3C(F)(F)F)C2=O)n1 [Compound 44, 2-[6-(ethylamino)-4-{3-[(4-methyl-1,2,4-triazol-3-yl)methyl]oxetan-3-yl}pyridin-2-yl]-6-{[(3S)-3-methylpiperidin-1-yl]methyl}-4-(trifluoromethyl)-3H-isoindol-1-one]",< 1,> 15,> 15,> 0.66,> 0.66,> 1.39,> 1.39,> 1.14,> 1.14,< 10,< 10,< 0.33,0.34 to 0.66,1.25 to 1.39,1.25 to 1.39,1.05 to 1.14,1.05 to 1.14,< 10,< 10,< 0.33,"IC50 [1, 25]: < 1 nM; IC50 [4, 26]: < 1 nM; IC50 [7, 26]: < 1 nM; fold induction at 3 µM ([8]; anti-CD3 alone): 0.34 to 0.66; fold induction at 0.3 µM [9, 11]: 1.25 to 1.39; fold induction at 1 µM [9, 23]: 1.25 to 1.39; fold induction at 1 µM [9, 24]: 1.05 to 1.14; fold induction at 3 µM ([9]; anti-CD3 alone): 1.05 to 1.14"
"CCOc1cc(C2(Cc3nncn3C)COC2)cc(N2Cc3c(cc(CN4CCC[C@H](C)C4)cc3C(F)(F)F)C2=O)n1 [Compound 39, 2-(6-ethoxy-4-{3-[(4-methyl-1,2,4-triazol-3-yl)methyl]oxetan-3-yl}pyridin-2-yl)-6-{[(3S)-3-methylpiperidin-1-yl]methyl}-4-(trifluoromethyl)-3H-isoindol-1-one]",< 1,> 15,> 15,> 0.66,> 0.66,> 1.39,> 1.39,> 1.14,> 1.14,> 15,> 15,> 0.66,> 0.66,> 1.39,> 1.39,> 1.14,> 1.14,> 15,> 15,> 0.66,"IC50 [1, 25]: < 1 nM; IC50 [4, 26]: < 1 nM; IC50 [7, 26]: < 1 nM; fold induction at 3 µM ([8]; anti-CD3 alone): > 0.66; fold induction at 0.3 µM [9, 11]: > 1.39; fold induction at 1 µM [9, 23]: > 1.39; fold induction at 1 µM [9, 24]: > 1.14; fold induction at 3 µM ([9]; anti-CD3 alone): > 1.14"

# Source: US11464802B2, “3-substituted piperidine compounds for Cbl-b inhibition, and use thereof” (Nurix Therapeutics, Inc., priority 2019, dated 2022)
